Data from patent publication US12012401B2, “Process for preparing N-(5-(3-(7-(3-fluorophenyl)-3H-imidazo[4,5-c]pyridin-2-yl)-1H-indazol-5-yl)pyridin-3-yl)-3-methylbutanamide” (BioSplice Therapeutics, Inc., priority 2016, dated 2024).
One block for each compound: values may come before it.

Key:
Format in all cases: physicochemical
[1] = Dynamic vapor sorption (DVS) scan; conditions: for water absorption (DVS scan): at 90% RH
From the text: The purity of the Form 13 sample was 98.8%; the KF of an undried Form 13 sample was 35.7%.

[2] = Form conversion on exposure to relative humidity / air (XRD); conditions: for XRD after exposure to air overnight: exposed to air overnight
Procedure: The hydrate lost its water below 30% RH.
Solvates 1 and 2 solids were exposed to air overnight, and then analyzed by XRD. After the analysis, the solids were dried at 50° C. under vacuum, and then analyzed by XRD again.

[3] = Form conversion on drying (XRD); conditions: for XRD after drying at 50° C. under vacuum: after air exposure overnight, dried at 50° C. under vacuum
Procedure: The Form 1 solid was dried at 75° C. under vacuum overnight, and XRD, DSC, and TGA scans were performed. […] However, the DSC scans indicated the absence of endotherm. The loss of the early peak on the DSC scan had no effect on the XRD trace, showing that the endotherm between 50-100° C. on DSC scan was due to the free solvent. The purity of the Form 13 sample was 98.8%; the KF of an undried Form 13 sample was 35.7%. […] Solvates 1 and 2 solids were exposed to air overnight, and then analyzed by XRD. After the analysis, the solids were dried at 50° C. under vacuum, and then analyzed by XRD again.

[4] = Heating in DSC chamber, then XRD scan (form conversion)
Procedure: The Form 1 solid was heated in a DSC chamber to 305° C. (past the endotherm/exotherm around 280° C.), and then scanned by XRD. […] Thus, the endotherm/exotherm around 280° C. might be due to melting/crystallization events.
The Form 2 solid was heated in a DSC machine to 90° C. (past the endotherm between 50-100° C.); to 270° C. (past the endotherm/exotherm around 240° C.); and finally to 330° C. (past the exotherm […]). The residual solid was analyzed by XRD. […] The endotherm between 50-100° C. might be free solvent or hydrate. […] Thus, the exotherm around 290° C. was a re-crystallization event. According to an XRD and DSC overlay, the behavior of Form 2* was similar to Form 2.
Form 13 solid was heated in a DSC chamber to 170° C. (past the endotherm between 50-100° C.), and then scanned by XRD. […] It can be concluded that the endotherm between 50-100° C. is due to bonded water.
Form 13 solid was heated in a DSC chamber to 330° C. (past the endotherm/exotherm around 300° C.), and then scanned by XRD. […] It can be concluded that the endotherm/exotherm is due to melting/crystallization events.

[5] = Competitive reslurry experiments between polymorph forms (thermodynamic stability); conditions: 3-5 days
Procedure: In order to find out the thermodynamic stability between the different forms, several competitive reslurry experiments were carried out. Form 1, Form 2, Form 2*, Form 3, Form 4, Form 4*, Form 4**, Form 5, Form 7, Form 8, Form 9, Form 10, Form 11, Form 11*, and Form 13 (10 mg for each) were mixed and slurried in 2 mL of solvent at both RT and 50° C. The solids were slurried for 3-5 days and then analyzed by XRD.

[6] = Competitive reslurry of Form 1, Form 9 and Form 13 (stability of Form 13 vs Form 9); conditions: toluene, IPAc, n-butyl acetate; 3 days at RT and 50° C.
Procedure: In order to find out the thermodynamic stability between Form 13 and Form 9, several competitive reslurry experiments were carried out. 15 mg of Form 1, Form 9 and Form 13 solids were mixed in 1 mL of toluene, IPAc, and n-butyl acetate, and slurried for 3 days at RT and 50° C.
The residual solid was analyzed by XRD.

[7] = Reslurry experiments in various solvents (polymorph screen)
Procedure: Reslurry experiments in various solvents were performed. Approximately 30-80 mg of the starting solid (a non-stoichiometric hydrate of Form 1 having between 1% and about 20% by weight water) was slurried in 39 different solvents (pure and binary solvents; the ratio of organic solvent/water (V/V) was 95%/5%) at RT and 50° C. for 5 days. Three solvates, one non-stoichiometric hydrate, and eleven non-solvated forms were identified. […] XRD of both wet and dry samples were scanned (FIG. 12A (dry sample)).

[8] = Solubility of the starting solid by the gravimetric method; conditions: at RT and at 50° C. in all solvents tested except DMF and DMSO
[9] = Acetontrile/water (5% water), RT
[10] = n-Butyl acetate/water (5% water), RT
[11] = Acetontrile/water (5% water), 50° C.
[12] = Heptane/water (5% water), 50° C.
[13] = Toluene/water (5% water), 50° C.
[14] = n-Butanol/water (5% water), 50° C.
[15] = n-Butyl acetate/water (5% water), 50° C.

Structure (SMILES): CC(C)CC(=O)Nc1cncc(-c2ccc3[nH]nc(-c4nc5c(-c6cccc(F)c6)cncc5[nH]4)c3c2)c1 [Form 1, N-(5-(3-(7-(3-fluorophenyl)-3H-imidazo[4,5-c]pyridin-2-yl)-1H-indazol-5-yl)pyridin-3-yl)-3-methylbutanamide]
- water absorption (DVS scan) [1]: 17%
- form change when exposed to air ([2]; exposed to air): converted to a non-stoichiometric hydrate of Form 1
- change of XRD scan after drying ([3]; dried at 75° C. under vacuum overnight): no change
- form after heating (XRD) ([4]; heated in a DSC chamber to 305° C.): converted to Form 9

Structure (SMILES): CC(C)CC(=O)Nc1cncc(-c2ccc3[nH]nc(-c4nc5c(-c6cccc(F)c6)cncc5[nH]4)c3c2)c1 [Form 2, N-(5-(3-(7-(3-fluorophenyl)-3H-imidazo[4,5-c]pyridin-2-yl)-1H-indazol-5-yl)pyridin-3-yl)-3-methylbutanamide]
- form after heating (XRD) ([4]; heated in a DSC machine to 90° C.): did not change
- form after heating (XRD) ([4]; heated in a DSC machine to 270° C.): converted to low crystalline solids
- form after heating (XRD) ([4]; heated to 330° C.): converted to Form 9
- thermodynamic stability in competitive reslurry ([5]; MeOH, EtOH, and acetone system at both RT and 50° C.): most stable form

Structure (SMILES): CC(C)CC(=O)Nc1cncc(-c2ccc3[nH]nc(-c4nc5c(-c6cccc(F)c6)cncc5[nH]4)c3c2)c1 [Form 4, N-(5-(3-(7-(3-fluorophenyl)-3H-imidazo[4,5-c]pyridin-2-yl)-1H-indazol-5-yl)pyridin-3-yl)-3-methylbutanamide]
- thermodynamic stability in competitive reslurry ([5]; EA at RT and 50° C.): most stable

Structure (SMILES): CC(C)CC(=O)Nc1cncc(-c2ccc3[nH]nc(-c4nc5c(-c6cccc(F)c6)cncc5[nH]4)c3c2)c1 [Form 9, N-(5-(3-(7-(3-fluorophenyl)-3H-imidazo[4,5-c]pyridin-2-yl)-1H-indazol-5-yl)pyridin-3-yl)-3-methylbutanamide]
- form before and after the DVS scan ([1]; DVS scan): did not change its form
- water absorption (DVS scan) [1]: 0.8%
- thermodynamic stability between Form 13 and Form 9 [6]: difficult to tell which one was more stable

Structure (SMILES): CC(C)CC(=O)Nc1cncc(-c2ccc3[nH]nc(-c4nc5c(-c6cccc(F)c6)cncc5[nH]4)c3c2)c1 [Form 12, N-(5-(3-(7-(3-fluorophenyl)-3H-imidazo[4,5-c]pyridin-2-yl)-1H-indazol-5-yl)pyridin-3-yl)-3-methylbutanamide]
- Form; Dry [7, 9]: Form 1
- Form; Wet [7, 9]: Form 12
- Form; Dry ([7]; EA/water (5% water), RT): Form 1
- Form; Wet ([7]; EA/water (5% water), RT): Form 12
- Form; Dry ([7]; Heptane/water (5% water), RT): Form 12
- Form; Wet ([7]; Heptane/water (5% water), RT): Form 13
- Form; Dry ([7]; IPAc/water (5% water), RT): Form 1
- Form; Wet ([7]; IPAc/water (5% water), RT): Form 12
- Form; Dry ([7]; MA/water (5% water), 50° C.): Form 4
- Form; Wet ([7]; MA/water (5% water), 50° C.): Form 12
- Form; Dry ([7]; MIBK/water (5% water), RT): Form 1
- Form; Wet ([7]; MIBK/water (5% water), RT): Form 12
- Form; Dry ([7]; MeOH/water (5% water), RT): Form 1
- Form; Wet ([7]; MeOH/water (5% water), RT): Form 12
- Form; Dry ([7]; MtBE/water (5% water), RT): Form 1
- Form; Wet ([7]; MtBE/water (5% water), RT): Form 12
- Form; Dry [7, 10]: Form 12
- Form; Wet [7, 10]: Form 13

Now from value to compound, other results behind:

- water absorption (DVS scan) [1]: 17%
- form change upon drying ([3]; upon drying): converted to Form 1
- form after heating (XRD) ([4]; heated in a DSC chamber to 170° C.): converted to Form 1
- form after heating (XRD) ([4]; heated to 330° C.): converted to Form 9
- thermodynamic stability in competitive reslurry ([5]; water at RT and 50° C.): most stable
- Form; Dry [7, 11]: Form 13
- Form; Wet [7, 11]: Form 13
- Form; Dry ([7]; DCM, 50° C.): Form 13
- Form; Wet ([7]; DCM, 50° C.): Form 13
- Form; Dry ([7]; DCM/water (5% water), 50° C.): Form 1
- Form; Wet ([7]; DCM/water (5% water), 50° C.): Form 13
- Form; Dry ([7]; DCM/water (5% water), RT): Form 1
- Form; Wet ([7]; DCM/water (5% water), RT): Form 13
- Form; Dry ([7]; Heptane, 50° C.): Form 13
- Form; Wet ([7]; Heptane, 50° C.): Form 13
- Form; Dry [7, 12]: Form 1
- Form; Wet [7, 12]: Form 13
- Form; Dry ([7]; Heptane/water (5% water), RT): Form 12
- Form; Wet ([7]; Heptane/water (5% water), RT): Form 13
- Form; Dry ([7]; IPAc/water (5% water), 50° C.): Form 13
- Form; Wet ([7]; IPAc/water (5% water), 50° C.): Form 13
- Form; Dry ([7]; MA/water (5% water), RT): Form 1
- Form; Wet ([7]; MA/water (5% water), RT): Form 13
- Form; Dry ([7]; MIBK/water (5% water), 50° C.): Form 1
- Form; Wet ([7]; MIBK/water (5% water), 50° C.): Form 13
- Form; Dry ([7]; MeOH, RT): Form 1
- Form; Wet ([7]; MeOH, RT): Form 13
- Form; Dry ([7]; MeOH/water (5% water), 50° C.): Form 13
- Form; Wet ([7]; MeOH/water (5% water), 50° C.): Form 13
- Form; Dry ([7]; MtBE/water (5% water), 50° C.): Form 13
- Form; Wet ([7]; MtBE/water (5% water), 50° C.): Form 13
- Form; Dry [7, 13]: Form 13
- Form; Wet [7, 13]: Form 13
- Form; Dry ([7]; Toluene/water (5% water), RT): Form 1
- Form; Wet ([7]; Toluene/water (5% water), RT): Form 13
- Form; Dry [7, 14]: Form 1
- Form; Wet [7, 14]: Form 13
- Form; Dry ([7]; n-Butanol/water (5% water), RT): Form 13
- Form; Wet ([7]; n-Butanol/water (5% water), RT): Form 13
- Form; Dry [7, 15]: Form 1
- Form; Wet [7, 15]: Form 13
- Form; Dry [7, 10]: Form 12
- Form; Wet [7, 10]: Form 13
- Form; Dry ([7]; water, 50° C.): Form 13
- Form; Wet ([7]; water, 50° C.): Form 13
- Form; Dry ([7]; water, RT): Form 1
- Form; Wet ([7]; water, RT): Form 13
Structure (SMILES): CC(C)CC(=O)Nc1cncc(-c2ccc3[nH]nc(-c4nc5c(-c6cccc(F)c6)cncc5[nH]4)c3c2)c1 [Form 13, N-(5-(3-(7-(3-fluorophenyl)-3H-imidazo[4,5-c]pyridin-2-yl)-1H-indazol-5-yl)pyridin-3-yl)-3-methylbutanamide]
- thermodynamic stability between Form 13 and Form 9 [6]: difficult to tell which one was more stable

- XRD after exposure to air overnight [2]: converted to low crystallinity
- XRD after drying at 50° C. under vacuum [3]: still a low crystallinity solid
Structure (SMILES): CC(C)CC(=O)Nc1cncc(-c2ccc3[nH]nc(-c4nc5c(-c6cccc(F)c6)cncc5[nH]4)c3c2)c1 [Solvate 1, N-(5-(3-(7-(3-fluorophenyl)-3H-imidazo[4,5-c]pyridin-2-yl)-1H-indazol-5-yl)pyridin-3-yl)-3-methylbutanamide]

- XRD after exposure to air overnight [2]: changed a little
- XRD after drying at 50° C. under vacuum [3]: remained the same
Structure (SMILES): CC(C)CC(=O)Nc1cncc(-c2ccc3[nH]nc(-c4nc5c(-c6cccc(F)c6)cncc5[nH]4)c3c2)c1 [Solvate 2, N-(5-(3-(7-(3-fluorophenyl)-3H-imidazo[4,5-c]pyridin-2-yl)-1H-indazol-5-yl)pyridin-3-yl)-3-methylbutanamide]

- RH below which the hydrate lost its water ([2]; RH): below 30 % RH
Structure (SMILES): CC(C)CC(=O)Nc1cncc(-c2ccc3[nH]nc(-c4nc5c(-c6cccc(F)c6)cncc5[nH]4)c3c2)c1 [non-stoichiometric hydrate of Form 1, N-(5-(3-(7-(3-fluorophenyl)-3H-imidazo[4,5-c]pyridin-2-yl)-1H-indazol-5-yl)pyridin-3-yl)-3-methylbutanamide]

- Solubility (in words) [8]: low solubility
Structure (SMILES): CC(C)CC(=O)Nc1cncc(-c2ccc3[nH]nc(-c4nc5c(-c6cccc(F)c6)cncc5[nH]4)c3c2)c1 [starting solid, N-(5-(3-(7-(3-fluorophenyl)-3H-imidazo[4,5-c]pyridin-2-yl)-1H-indazol-5-yl)pyridin-3-yl)-3-methylbutanamide]
